Data taken from patent publication US20140357655A1, “SPIROINDOLINE DERIVATIVES AS GONADOTROPIN- RELEASING HORMONE RECEPTOR ANTAGONISTS” (Bayer Intellectual Property GmbH, priority 2012, published 2014).

target: T1, human GnRH receptor (Homo sapiens, UniProt P30968); test: IP-One HTRF assay with buserelin (at EC80) stimulation; assay type: cell-based; conditions: CHO cells stably expressing human GnRH receptor, read-out: Potency in IP-One HTRF assay, given as IC50
T1 sequence (P30968 1-328): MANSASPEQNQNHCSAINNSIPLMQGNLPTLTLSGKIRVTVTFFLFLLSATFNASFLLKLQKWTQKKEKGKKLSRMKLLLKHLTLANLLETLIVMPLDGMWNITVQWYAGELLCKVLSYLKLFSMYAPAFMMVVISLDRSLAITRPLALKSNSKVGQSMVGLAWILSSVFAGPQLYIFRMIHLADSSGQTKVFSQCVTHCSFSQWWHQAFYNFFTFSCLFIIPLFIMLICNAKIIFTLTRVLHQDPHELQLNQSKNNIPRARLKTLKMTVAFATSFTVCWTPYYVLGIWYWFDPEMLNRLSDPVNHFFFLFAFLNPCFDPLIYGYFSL
Summary of the method: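 CHO cells stably expressing human GnRH receptor, preincubated 1 h at 37° C with IP1-d2, were exposed to compound and buserelin at EC80 for 1 h at 37° C. After lysis with Tb-anti-IP1 antibody (1 h, 22° C), 665/620 nm HTRF ratio read; 10 concentrations, 20 μM–1 nM, duplicates, 4-parameter IC50.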

SMILES	IC50
C=CC1N(S(=O)(=O)c2cccc(C(=O)OC)c2)c2ccc(C(=O)NCc3ccccc3Cl)cc2C12CCS(=O)(=O)CC2 (centres unmarked) [Example 55, methyl 3-({5-[N-(2-chlorobenzyl)carbamoyl]-1′,1′-dioxido-2-vinyl-1,2,2′,3′,5′,6′-hexahydrospiro[indole-3,4′-thiopyran]-1-yl}sulfonyl)benzoate]	622 nM
C=CCC1N(S(=O)(=O)c2cccc(C(=O)O)c2)c2ccc(C(=O)NCc3ccccc3Cl)cc2C12CCS(=O)(=O)CC2 (centres unmarked) [Example 56, 3-({5-[(2-chlorobenzyl)carbamoyl]-1′,1′-dioxido-2-(prop-2-en-1-yl)-2′,3′,5′,6′-tetrahydrospiro[indole-3,4′-thiopyran]-1(2H)-yl}sulfonyl)benzoic acid]	136 nM
C=CCC1N(S(=O)(=O)c2ccc(F)cc2)c2ccc(C(=O)NCc3ncccc3Cl)cc2C12CCS(=O)(=O)CC2 (centres unmarked) [Example 57, N-[(3-chloropyridin-2-yl)methyl]-1-[(4-fluorophenyl)sulfonyl]-2-(prop-2-en-1-yl)-1,2,2′,3′,5′,6′-hexahydrospiro[indole-3,4′-thiopyran]-5-carboxamide 1′,1′-dioxide]	71 nM
C=CCC1N(S(=O)(=O)c2ccc(F)cc2)c2ccc(C(=O)Nc3cccc(C(=O)OC)c3)cc2C12CCS(=O)(=O)CC2 (centres unmarked) [Example 58, methyl 3-[({1-[(4-fluorophenyl)sulfonyl]-1′,1′-dioxido-2-(prop-2-en-1-yl)-1,2,2′,3′,5′,6′-hexahydrospiro[indole-3,4′-thiopyran]-5-yl}carbonyl)amino]benzoate]	41 nM
C=CCC1N(S(=O)(=O)c2ccc(F)cc2)c2ccc(C(=O)Nc3cccc(C(=O)O)c3)cc2C12CCS(=O)(=O)CC2 (centres unmarked) [Example 59, 3-[({1-[(4-fluorophenyl)sulfonyl]-1′,1′-dioxido-2-(prop-2-en-1-yl)-1,2,2′,3′,5′,6′-hexahydrospiro[indole-3,4′-thiopyran]-5-yl}carbonyl)amino]benzoic acid]	80 nM
COC(=O)c1cccc(S(=O)(=O)N2c3ccc(C(=O)NCc4ccccc4Cl)cc3C3(CCS(=O)(=O)CC3)C2C2CC2)c1 (centres unmarked) [Example 60, methyl 3-({5-[(2-chlorobenzyl)carbamoyl]-2-cyclopropyl-1′,1′-dioxido-2′,3′,5′,6′-tetrahydrospiro[indole-3,4′-thiopyran]-1(2H)-yl}sulfonyl)benzoate]	192 nM
COc1cccc(S(=O)(=O)N2c3ccc(C(=O)Nc4cccc(S(=O)(=O)N=C(N(C)C)N(C)C)c4)cc3C3(CCS(=O)(=O)CC3)C2C2CC2)c1 (centres unmarked) [Example 62, N-(3-{[bis(dimethylamino)methylidene]sulfamoyl}phenyl)-2-cyclopropyl-1-[(3-methoxyphenyl)sulfonyl]-1,2,2′,3′,5′,6′-hexahydrospiro[indole-3,4′-thiopyran]-5-carboxamide 1′,1′-dioxide]	9.8 nM
O=C(Nc1ccon1)c1ccc2c(c1)C1(CCS(=O)(=O)CC1)C(C1CC1)N2S(=O)(=O)c1ccc(F)cc1 (centres unmarked) [Example 63, 2-cyclopropyl-1-[(4-fluorophenyl)sulfonyl]-N-(1,2-oxazol-3-yl)-1,2,2′,3′,5′,6′-hexahydrospiro[indole-3,4′-thiopyran]-5-carboxamide 1′,1′-dioxide]	325 nM
CN(C)C(=NS(=O)(=O)c1cccc(NC(=O)c2ccc3c(c2)C2(CCS(=O)(=O)CC2)C(C2CC2)N3S(=O)(=O)c2ccc(F)cc2)c1)N(C)C (centres unmarked) [Example 64, N-(3-{[bis(dimethylamino)methylidene]sulfamoyl}phenyl)-2-cyclopropyl-1-[(4-fluorophenyl)sulfonyl]-1,2,2′,3′,5′,6′-hexahydrospiro[indole-3,4′-thiopyran]-5-carboxamide 1′,1′-dioxide]	9.3 nM
O=C(NCc1ccc(C(F)(F)F)cn1)c1ccc2c(c1)C1(CCS(=O)(=O)CC1)C(C1CC1)N2S(=O)(=O)c1ccc(F)cc1 (centres unmarked) [Example 65, 2-cyclopropyl-1-[(4-fluorophenyl)sulfonyl]-N-{[5-(trifluoromethyl)pyridin-2-yl]methyl}-1,2,2′,3′,5′,6′-hexahydrospiro[indole-3,4′-thiopyran]-5-carboxamide 1′,1′-dioxide]	479 nM
Cc1cc(NS(=O)(=O)c2cccc(NC(=O)c3ccc4c(c3)C3(CCS(=O)(=O)CC3)C(C3CC3)N4S(=O)(=O)c3ccc(F)cc3)c2)no1 (centres unmarked) [Example 66, 2-cyclopropyl-1-[(4-fluorophenyl)sulfonyl]-N-{3-[(5-methyl-1,2-oxazol-3-yl)sulfamoyl]phenyl}-1,2,2′,3′,5′,6′-hexahydrospiro[indole-3,4′-thiopyran]-5-carboxamide 1′,1′-dioxide]	177 nM
O=C(NCc1ccccc1C(F)F)c1ccc2c(c1)C1(CCS(=O)(=O)CC1)C(C1CC1)N2S(=O)(=O)c1ccc(F)cc1 (centres unmarked) [Example 68, 2-cyclopropyl-N-[2-(difluoromethyl)benzyl]-1-[(4-fluorophenyl)sulfonyl]-1,2,2′,3′,5′,6′-hexahydrospiro[indole-3,4′-thiopyran]-5-carboxamide 1′,1′-dioxide]	4.5 nM
O=C(NCc1ccccc1O)c1ccc2c(c1)C1(CCS(=O)(=O)CC1)C(C1CC1)N2S(=O)(=O)c1ccc(F)cc1 (centres unmarked) [Example 69, 2-cyclopropyl-1-[(4-fluorophenyl)sulfonyl]-N-(2-hydroxybenzyl)-1,2,2′,3′,5′,6′-hexahydrospiro[indole-3,4′-thiopyran]-5-carboxamide 1′,1′-dioxide]	320 nM
N#Cc1ccc(S(=O)(=O)N2c3ccc(C(=O)NCc4ncccc4Cl)cc3C3(CCS(=O)(=O)CC3)C2C2CC2)cc1 (centres unmarked) [Example 70, N-[(3-chloropyridin-2-yl)methyl]-1-[(4-cyanophenyl)sulfonyl]-2-cyclopropyl-1,2,2′,3′,5′,6′-hexahydrospiro[indole-3,4′-thiopyran]-5-carboxamide 1′,1′-dioxide]	63 nM
N#Cc1ccc(S(=O)(=O)N2c3ccc(C(=O)Nc4cncc(Cl)c4)cc3C3(CCS(=O)(=O)CC3)C2C2CC2)cc1 (centres unmarked) [Example 71, N-(5-chloropyridin-3-yl)-1-[(4-cyanophenyl)sulfonyl]-2-cyclopropyl-1,2,2′,3′,5′,6′-hexahydrospiro[indole-3,4′-thiopyran]-5-carboxamide 1′,1′-dioxide]	52 nM
N#Cc1ccc(S(=O)(=O)N2c3ccc(C(=O)NCc4ccccc4C(F)(F)F)cc3C3(CCS(=O)(=O)CC3)C2C2CC2)cc1 (centres unmarked) [Example 72, 1-[(4-cyanophenyl)sulfonyl]-2-cyclopropyl-N-[2-(trifluoromethyl)benzyl]-1,2,2′,3′,5′,6′-hexahydrospiro[indole-3,4′-thiopyran]-5-carboxamide 1′,1′-dioxide]	13 nM
N#Cc1ccc(S(=O)(=O)N2c3ccc(C(=O)Nc4ncco4)cc3C3(CCS(=O)(=O)CC3)C2C2CC2)cc1 (centres unmarked) [Example 73, 1-[(4-cyanophenyl)sulfonyl]-2-cyclopropyl-N-(1,3-oxazol-2-yl)-1,2,2′,3′,5′,6′-hexahydrospiro[indole-3,4′-thiopyran]-5-carboxamide 1′,1′-dioxide]	130 nM
N#Cc1ccc(S(=O)(=O)N2c3ccc(C(=O)Nc4ccccc4Cl)cc3C3(CCS(=O)(=O)CC3)C2C2CC2)cc1 (centres unmarked) [Example 74, N-(2-chlorophenyl)-1-[(4-cyanophenyl)sulfonyl]-2-cyclopropyl-1,2,2′,3′,5′,6′-hexahydrospiro[indole-3,4′-thiopyran]-5-carboxamide 1′,1′-dioxide]	66 nM
N#Cc1cccc(S(=O)(=O)N2c3ccc(C(=O)NCc4ccccc4Cl)cc3C3(CCS(=O)(=O)CC3)C2C2CC2)c1 (centres unmarked) [Example 76, N-(2-chlorobenzyl)-1-[(3-cyanophenyl)sulfonyl]-2-cyclopropyl-1,2,2′,3′,5′,6′-hexahydrospiro[indole-3,4′-thiopyran]-5-carboxamide 1′,1′-dioxide]	44 nM
N#Cc1cccc(S(=O)(=O)N2c3ccc(C(=O)Nc4cncc(Cl)c4)cc3C3(CCS(=O)(=O)CC3)C2C2CC2)c1 (centres unmarked) [Example 77, N-(5-chloropyridin-3-yl)-1-[(3-cyanophenyl)sulfonyl]-2-cyclopropyl-1,2,2′,3′,5′,6′-hexahydrospiro[indole-3,4′-thiopyran]-5-carboxamide 1′,1′-dioxide]	700 nM
N#Cc1cccc(S(=O)(=O)N2c3ccc(C(=O)Nc4ncco4)cc3C3(CCS(=O)(=O)CC3)C2C2CC2)c1 (centres unmarked) [Example 78, 1-[(3-cyanophenyl)sulfonyl]-2-cyclopropyl-N-(1,3-oxazol-2-yl)-1,2,2′,3′,5′,6′-hexahydrospiro[indole-3,4′-thiopyran]-5-carboxamide 1′,1′-dioxide]	706 nM
N#Cc1cccc(S(=O)(=O)N2c3ccc(C(=O)NCc4ncccc4C(F)(F)F)cc3C3(CCS(=O)(=O)CC3)C2C2CC2)c1 (centres unmarked) [Example 79, 1-[(3-cyanophenyl)sulfonyl]-2-cyclopropyl-N-{[3-(trifluoromethyl)pyridin-2-yl]methyl}-1,2,2′,3′,5′,6′-hexahydrospiro[indole-3,4′-thiopyran]-5-carboxamide 1′,1′-dioxide]	64 nM
N#Cc1cccc(S(=O)(=O)N2c3ccc(C(=O)Nc4ccon4)cc3C3(CCS(=O)(=O)CC3)C2C2CC2)c1 (centres unmarked) [Example 80, 1-[(3-cyanophenyl)sulfonyl]-2-cyclopropyl-N-(1,2-oxazol-3-yl)-1,2,2′,3′,5′,6′-hexahydrospiro[indole-3,4′-thiopyran]-5-carboxamide 1′,1′-dioxide]	218 nM
